Measured values taken from PubChem BioAssay (NCI).
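Five concentrations, 48 hours, 96-well plates. GI50 is the concentration that inhibits growth by half. Definition used: TGI = concentration required for complete inhibition of growth.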

Legend:
Experiment in all cases: NCI-60 cell line screen, 48 h
U251 CNS = test system: U251 CNS
SF-539 CNS = test system: SF-539 CNS
786-0 renal = test system: 786-0 renal
HCC-2998 colon = test system: HCC-2998 colon
MCF7 breast = test system: MCF7 breast
CCRF-CEM leukemia = test system: CCRF-CEM leukemia
OVCAR-3 ovarian = test system: OVCAR-3 ovarian
IGROV1 ovarian = test system: IGROV1 ovarian
OVCAR-4 ovarian = test system: OVCAR-4 ovarian
BT-549 breast = test system: BT-549 breast
M14 melanoma = test system: M14 melanoma
ACHN renal = test system: ACHN renal
COLO 205 colon = test system: COLO 205 colon
HS 578T breast = test system: HS 578T breast
MOLT-4 leukemia = test system: MOLT-4 leukemia
DU-145 prostate = test system: DU-145 prostate
CAKI-1 renal = test system: CAKI-1 renal
A549 NSCLC = test system: A549 NSCLC
NCI-H226 lung = test system: NCI-H226 lung
HCT-15 colon = test system: HCT-15 colon
SN12C renal = test system: SN12C renal
OVCAR-5 ovarian = test system: OVCAR-5 ovarian
RPMI-8226 leukemia = test system: RPMI-8226 leukemia
UACC-257 melanoma = test system: UACC-257 melanoma
NCI-H522 lung = test system: NCI-H522 lung
PC-3 prostate = test system: PC-3 prostate
NCI-H460 lung = test system: NCI-H460 lung
SK-OV-3 ovarian = test system: SK-OV-3 ovarian
SNB-75 CNS = test system: SNB-75 CNS
NCI/ADR-RES ovarian = test system: NCI/ADR-RES ovarian
MDA-MB-231 breast = test system: MDA-MB-231 breast
OVCAR-8 ovarian = test system: OVCAR-8 ovarian
HL-60(TB) leukemia = test system: HL-60(TB) leukemia
SW-620 colon = test system: SW-620 colon
HOP-62 NSCLC = test system: HOP-62 NSCLC
A498 renal = test system: A498 renal
MDA-MB-435 = test system: MDA-MB-435
RXF 393 renal = test system: RXF 393 renal
KM12 colon = test system: KM12 colon
NCI-H23 lung = test system: NCI-H23 lung
SF-268 CNS = test system: SF-268 CNS
T-47D breast = test system: T-47D breast
SK-MEL-28 melanoma = test system: SK-MEL-28 melanoma
SK-MEL-5 melanoma = test system: SK-MEL-5 melanoma
HCT-116 colon = test system: HCT-116 colon
K-562 leukemia = test system: K-562 leukemia
UO-31 renal = test system: UO-31 renal
HT29 colon = test system: HT29 colon
MALME-3M melanoma = test system: MALME-3M melanoma
SF-295 CNS = test system: SF-295 CNS
UACC-62 melanoma = test system: UACC-62 melanoma
SNB-19 CNS = test system: SNB-19 CNS
TK-10 renal = test system: TK-10 renal
SR leukemia = test system: SR leukemia
HOP-92 NSCLC = test system: HOP-92 NSCLC
LOX IMVI melanoma = test system: LOX IMVI melanoma
SK-MEL-2 melanoma = test system: SK-MEL-2 melanoma

Work on `c1ccc2[nH]c(-c3cc(-c4ccc5c(c4)OCO5)n[nH]3)nc2c1` yielded a GI50 (U251 CNS) of 2.37 µM, a TGI (U251 CNS) of 14.4 µM and a GI50 (SF-539 CNS) of 2.71 µM. The TGI (SF-539 CNS) was 14.1 µM, the GI50 (786-0 renal) was 4.58 µM and the TGI (786-0 renal) was 17.4 µM. It also gave a GI50 (HCC-2998 colon) of 3.74 µM, a TGI (HCC-2998 colon) of 14 µM and a GI50 (MCF7 breast) of 3.78 µM. For the same compound, the TGI (MCF7 breast) was 18.3 µM, the GI50 (CCRF-CEM leukemia) was 2.52 µM and the TGI (CCRF-CEM leukemia) was 22.4 µM. It also gave a GI50 (OVCAR-3 ovarian) of 3.21 µM, a TGI (OVCAR-3 ovarian) of 14.6 µM and a GI50 (IGROV1 ovarian) of 3.66 µM. It also gave a TGI (IGROV1 ovarian) of 15.9 µM, a GI50 (OVCAR-4 ovarian) of 2.16 µM and a TGI (OVCAR-4 ovarian) of 12 µM. It also gave a GI50 (BT-549 breast) of 2.12 µM, a TGI (BT-549 breast) of 13 µM and a GI50 (M14 melanoma) of 2.19 µM. It also gave a TGI (M14 melanoma) of 16.7 µM, a GI50 (ACHN renal) of 4.33 µM and a TGI (ACHN renal) of 19 µM. It also gave a GI50 (COLO 205 colon) of 4.78 µM, a TGI (COLO 205 colon) of 18.5 µM and a GI50 (HS 578T breast) of 3.8 µM. For the same compound, the TGI (HS 578T breast) was 52.3 µM, the GI50 (MOLT-4 leukemia) was 2.68 µM and the TGI (MOLT-4 leukemia) was 20.9 µM. The GI50 (DU-145 prostate) was 7.27 µM, the TGI (DU-145 prostate) was 22 µM and the GI50 (CAKI-1 renal) was 2.74 µM. The TGI (CAKI-1 renal) was 17.7 µM, the GI50 (A549 NSCLC) was 4.23 µM and the TGI (A549 NSCLC) was 19.7 µM. It also gave a GI50 (NCI-H226 lung) of 4.2 µM, a TGI (NCI-H226 lung) of 21 µM and a GI50 (HCT-15 colon) of 3.86 µM. The TGI (HCT-15 colon) was 20.3 µM, the GI50 (SN12C renal) was 3.73 µM and the TGI (SN12C renal) was 21.3 µM. For the same compound, the GI50 (OVCAR-5 ovarian) was 14.9 µM, the TGI (OVCAR-5 ovarian) was 34.3 µM and the GI50 (RPMI-8226 leukemia) was 1.14 µM. The TGI (RPMI-8226 leukemia) was 7.16 µM, the GI50 (UACC-257 melanoma) was 6 µM and the TGI (UACC-257 melanoma) was 23.2 µM. It also gave a GI50 (NCI-H522 lung) of 1.98 µM, a TGI (NCI-H522 lung) of 10.3 µM and a GI50 (PC-3 prostate) of 3.64 µM. It also gave a TGI (PC-3 prostate) of 17.7 µM, a GI50 (NCI-H460 lung) of 4.57 µM and a TGI (NCI-H460 lung) of 17.7 µM. The GI50 (SK-OV-3 ovarian) was 4.98 µM, the TGI (SK-OV-3 ovarian) was 17.7 µM and the GI50 (SNB-75 CNS) was 10.1 µM. The TGI (SNB-75 CNS) was 23.7 µM, the GI50 (NCI/ADR-RES ovarian) was 4.08 µM and the TGI (NCI/ADR-RES ovarian) was 27.1 µM. It also gave a GI50 (MDA-MB-231 breast) of 4.12 µM, a TGI (MDA-MB-231 breast) of 20.2 µM and a GI50 (OVCAR-8 ovarian) of 3.97 µM. The TGI (OVCAR-8 ovarian) was 18 µM, the GI50 (HL-60(TB) leukemia) was 2.27 µM and the TGI (HL-60(TB) leukemia) was 20.2 µM. The GI50 (SW-620 colon) was 5.87 µM, the TGI (SW-620 colon) was 21.4 µM and the GI50 (HOP-62 NSCLC) was 8.46 µM. It also gave a TGI (HOP-62 NSCLC) of 21.8 µM, a GI50 (A498 renal) of 1.7 µM and a TGI (A498 renal) of 12.8 µM. For the same compound, the GI50 (MDA-MB-435) was 3.12 µM, the TGI (MDA-MB-435) was 15.6 µM and the GI50 (RXF 393 renal) was 2.36 µM. The TGI (RXF 393 renal) was 12.1 µM, the GI50 (KM12 colon) was 1.75 µM and the TGI (KM12 colon) was 13.2 µM. It also gave a GI50 (NCI-H23 lung) of 4.47 µM, a TGI (NCI-H23 lung) of 19.3 µM and a GI50 (SF-268 CNS) of 4.77 µM. For the same compound, the TGI (SF-268 CNS) was 22.4 µM, the GI50 (T-47D breast) was 3.32 µM and the TGI (T-47D breast) was 16.2 µM. The GI50 (SK-MEL-28 melanoma) was 4.85 µM, the TGI (SK-MEL-28 melanoma) was 18.5 µM and the GI50 (SK-MEL-5 melanoma) was 1.53 µM. It also gave a TGI (SK-MEL-5 melanoma) of 3.55 µM, a GI50 (HCT-116 colon) of 6.36 µM and a TGI (HCT-116 colon) of 25.4 µM. It also gave a GI50 (K-562 leukemia) of 3.83 µM, a TGI (K-562 leukemia) of 22.1 µM and a GI50 (UO-31 renal) of 3.98 µM. For the same compound, the TGI (UO-31 renal) was 16.1 µM, the GI50 (HT29 colon) was 3.66 µM and the TGI (HT29 colon) was 15 µM. For the same compound, the GI50 (MALME-3M melanoma) was 2.33 µM, the TGI (MALME-3M melanoma) was 13.2 µM and the GI50 (SF-295 CNS) was 3.24 µM. It also gave a TGI (SF-295 CNS) of 14.6 µM, a GI50 (UACC-62 melanoma) of 3.08 µM and a TGI (UACC-62 melanoma) of 14.7 µM. It also gave a GI50 (SNB-19 CNS) of 5.92 µM, a TGI (SNB-19 CNS) of 25.6 µM and a GI50 (TK-10 renal) of 10.9 µM. It also gave a TGI (TK-10 renal) of 23.8 µM, a GI50 (SR leukemia) of 3.37 µM and a TGI (SR leukemia) of 16.8 µM.

With `O=C(CC(Cl)=C(Cl)Cl)c1ccccc1` the TGI (U251 CNS) was greater than 100 µM, the TGI (SF-539 CNS) was greater than 100 µM and the TGI (786-0 renal) was 48 µM. The TGI (MCF7 breast) was greater than 100 µM, the TGI (CCRF-CEM leukemia) was 30.4 µM and the TGI (OVCAR-3 ovarian) was 81.4 µM. It also gave a TGI (IGROV1 ovarian) greater than 100 µM, a TGI (OVCAR-4 ovarian) greater than 100 µM and a TGI (BT-549 breast) greater than 100 µM. For the same compound, the TGI (M14 melanoma) was greater than 100 µM, the TGI (ACHN renal) was greater than 100 µM and the TGI (HOP-92 NSCLC) was greater than 100 µM. For the same compound, the TGI (COLO 205 colon) was 78.9 µM, the TGI (HS 578T breast) was greater than 100 µM and the TGI (MOLT-4 leukemia) was 28.6 µM. The TGI (DU-145 prostate) was greater than 100 µM, the TGI (CAKI-1 renal) was 53.6 µM and the TGI (A549 NSCLC) was greater than 100 µM. The TGI (NCI-H226 lung) was 72.5 µM, the TGI (HCT-15 colon) was 70.6 µM and the TGI (OVCAR-5 ovarian) was greater than 100 µM. For the same compound, the TGI (RPMI-8226 leukemia) was 41.9 µM, the TGI (UACC-257 melanoma) was 70 µM and the TGI (NCI-H522 lung) was 69.6 µM. For the same compound, the TGI (PC-3 prostate) was greater than 100 µM, the TGI (NCI-H460 lung) was greater than 100 µM and the TGI (SK-OV-3 ovarian) was greater than 100 µM. For the same compound, the TGI (SNB-75 CNS) was greater than 100 µM, the TGI (NCI/ADR-RES ovarian) was greater than 100 µM and the TGI (MDA-MB-231 breast) was greater than 100 µM. It also gave a TGI (OVCAR-8 ovarian) greater than 100 µM, a TGI (HL-60(TB) leukemia) greater than 100 µM and a TGI (SW-620 colon) greater than 100 µM. The TGI (HOP-62 NSCLC) was greater than 100 µM, the TGI (A498 renal) was greater than 100 µM and the TGI (MDA-MB-435) was greater than 100 µM. For the same compound, the TGI (RXF 393 renal) was 63.8 µM, the TGI (KM12 colon) was greater than 100 µM and the TGI (NCI-H23 lung) was greater than 100 µM. The TGI (SF-268 CNS) was greater than 100 µM, the TGI (T-47D breast) was greater than 100 µM and the TGI (SK-MEL-28 melanoma) was greater than 100 µM. The TGI (SK-MEL-5 melanoma) was greater than 100 µM, the TGI (HCT-116 colon) was 45.2 µM and the TGI (K-562 leukemia) was 50 µM. It also gave a TGI (UO-31 renal) greater than 100 µM, a TGI (HT29 colon) greater than 100 µM and a TGI (LOX IMVI melanoma) of 32.1 µM. The TGI (MALME-3M melanoma) was greater than 100 µM, the TGI (SK-MEL-2 melanoma) was greater than 100 µM and the TGI (SF-295 CNS) was greater than 100 µM. It also gave a TGI (UACC-62 melanoma) greater than 100 µM, a TGI (SNB-19 CNS) greater than 100 µM and a TGI (TK-10 renal) greater than 100 µM. It also gave a TGI (SR leukemia) of 43.7 µM.
